Measurements as given in patent US5025036A, “Catechol carboxylic acids” (Hoffmann-La Roche Inc., priority 1989, dated 1991).

Columns and labels:
[1] = test system: cardiac lipid peroxidation; assay: In vitro testing of antiperoxidative agents (cardiac lipid peroxidation); format: biochemical; conditions: rat cardiac liposomes, 60 minutes, 37° C., pH 7.4; read-out: Inhib. of Lipid Peroxidation IC50
Procedure: The test system employs hypoxanthine-xanthine oxidase (XO)-Fe^3+. ADP as the free radical generator and purified, native rat-heart membrane phosphoglyceride in Hepes-KCl buffer, pH 7.4, as the substrate. Inhibition of superoxide-dependent, iron-promoted lipid peroxidation in the linear reaction phase (after 1 hour of reaction) is measured as the net formation of thiobarbituric acid (TBA)-reactive material. In this system, the TBA-reactive material, isolated by HPLC, is exclusively (>95%) malondialdehyde (MDA), a fragmentation end-product arising from fatty acyl hydroperoxides and cyclic endoperoxides.
Conscious male Sprague-Dawley rats (~275 g) maintained on a normal rodent diet were decapitated. The hearts were rapidly removed and perfused via the aorta with ice-cold 10 mM Hepes buffer, pH 7.4. The aorta and atria were removed, and the ventricular tissue was blotted and weighed (wet weight). The hearts were minced on ice with scissors and finally homogenized (100 mg tissue/ml ice-cold buffer) for 15 seconds (3×5 seconds) with a Tekmar Tissumizer at "maximal" setting. The homogenate was filtered through 4-ply cheesecloth, and homogenate lipids were extracted and purified by a modified Bligh-Dyer procedure (M. D. Marshall and M. Kates, Biochem. Biophys. Acta 260, 558 (1972). The cardiac lipids were stored in CHCl3 under nitrogen at -20° C.
Liposomes were prepared from extracted and purified, native rat heart cardiac lipid and were used as substrate for free-radical attack. Cardiac lipid (in CHCl3) was placed in a glass flask and evaporated to dryness under nitrogen at room temperature; the flask was gently rotated during evaporation to yield a thin, dry lipid film. The lipid was taken up in 10 mM Hepes-0.145M CKl, pH 7.4, and was resuspended by indirect anaerobic sonication for 15 minutes at room temperature. The liposome suspension was used immediately.
A chelate was formed in Hepes-KCl buffer between Fe^3+ (1.0 mM FeCl3, final concentration) and ADP (10 mM, final concentration) at pH 7.4 with stirring at room temperature. Chelation was allowed to proceed for 90 minutes prior to use. The chelate was prepared fresh for each days experiments to ensure iron solubility, effective chelation, and valence state.
Malondialdehyde (MDA) equivalents were measured as thiobarbituric acid (TBA)-reactive material by the following modification of published methods. The reaction mixture, prepared fresh daily, contained water:BHT ([…] BHT in absolute ethanol):TBA (1.5% TBA in 0.2M Tris, pH 7.0) in the volume ratio 1:1:5. To each 1.0 ml of peroxidation reaction assayed (see below), 0.35 ml reaction mixture was added. After thorough mixing, the tubes were incubated in an 80° C. shaking water bath for 30 minutes. After this time, the tubes were plunged into an ice water bath, and the reaction was immediately stopped with 0.5 ml ice-cold 91% TCA followed by 2.0 ml CHCl3. After centrifugation for 30 minutes at 2000 rpm in a Sorval HL-8 rotor (4° C.), the absorbance of the washed, pink upper phase was read at 532 nm. A standard curve (0.8-40.0 nmol MDA) was run with every assay. For each curve, MDA was freshly prepared by acidification of 1,1,3,3-tetraethoxypropane with 75% TCA-2.3N HCl (0.15 ml acid mixture with 1.0 ml suitably diluted tetraethoxypropane). Computer-assisted regression analysis of the standard curve was used to quantify the molar amounts of MDA equivalents in the experimental samples.
Cardiac liposomes were subjected to superoxide-dependent, iron-promoted peroxidation in glass vessels to avoid the well-known antioxidant effects of many common polymerizing agents used to fabricate plastic labware. Screening was performed in triplicate in glass 12×75 mm tubes at a final reaction volume of 1.0 ml and a reaction time of 60 minutes. […]

[2] = Antibiotic-Induced Colitis in Hamsters, In Vivo; parameters: species or system male Syrian hamsters (LUG); conditions: >1.0 = therapy prolongs survival, ** p < 0.01
Procedure: Male Syrian hamsters (LUG), weighing 80 to 120 g were each given a single dose of 175 mg/kg of clindamycin-phosphate or of clindamycin-hydrochlorideintraperitoneally, to induce colitis. Approximately seven hours after injection, the animals were given the test compound orally or intraperitoneally and the therapy was continued twice a day for a period of four more days. For oral administration, the […] was suspended in water or dissolved in dimethylsulfoxide and delivered to the animals by gavage using an oral intubating needle. The effect of the therapy was measured by use of the Hazard Ratio, which is the ratio of the mortality of the animals treated with the test inhibitor compound contained in a vehicle to the mortality of the animals treated with the vehicle containing none of the test inhibitor compound. The mortality was determined for the test inhibitor compound-treated groups and for the vehicle-treated groups, respectively, twice daily, and was evaluated by comparing the survival curves of each group. The Kaplan-Meier estimate of the survival curve was calculated for each group and the Mantel-Cox (logrank) test was used to compare the survival curve of each test inhibitor compound-treated (therapy) group to that of the corresponding vehicle control group. […] (See, J. G. Bartlett et al. Amer. J. Vet. Res. 39: 1525-1530 (1978)).

CCCc1c(OCCCCCCc2cccc(O)c2O)ccc(C(C)=O)c1O [1-[2-hydroxy-4-[6-(2,3-dihydroxyphenyl)hexyloxy]-3-propylphenyl]ethanone]
IC50 [1]: 700 nM

O=C(O)c1ccc(OCCCCCCc2cccc(O)c2O)cc1O [4-[6-(2,3-Dihydroxyphenyl)hexyloxy]-2-hydroxybenzoic acid]
IC50 [1]: > 1000 nM

O=C(O)c1ccc(OCCCCCCc2cccc(O)c2O)cc1 [4-[6-(2,3-Dihydroxyphenyl)hexyloxy]benzoic acid]
IC50 [1]: > 1000 nM

CCCc1c(OCCCCCCCCCCc2cccc(O)c2O)ccc(C(=O)O)c1O [4-[10-(2,3-dihydroxyphenyl)decyloxy]-2-hydroxy-3-propylbenzoic acid]
IC50 [1]: 400 nM

CCCc1c(OCCCCCCc2cccc(O)c2O)ccc(C(=O)O)c1O [4-[6-(2,3-Dihydroxyphenyl)hexyloxy]-2-hydroxy-3-propylbenzoic acid]
IC50 [1]: 300 nM | Hamster Colitis Model Hazard Ratio ([2]; 10 mg/kg p.o): 2.26 | Hamster Colitis Model Hazard Ratio ([2]; 100 mg/kg p.o): 4.22

CCCc1c(OCCCCCCc2ccc(O)c(O)c2)ccc(C(=O)O)c1O [4-[6-(3,4-dihydroxyphenyl)hexyloxy]-2-hydroxy-3-propylbenzoic acid]
IC50 [1]: 600 nM

CCCc1c(OCCCCCCCCc2cccc(O)c2O)ccc(C(=O)O)c1O [4-[8-(2,3-dihydroxyphenyl)octyloxy]-2-hydroxy-3-propylbenzoic acid]
IC50 [1]: 300 nM

CCCc1c(OCCCCCCc2ccc(C(C)C)c(O)c2O)ccc(C(=O)O)c1O [4-[6-[2,3-dihydroxy-4-(1-methylethyl)phenyl]hexyloxy]-2-hydroxy-3-propylbenzoic acid]
IC50 [1]: 700 nM

CCCc1c(OCCCCc2cccc(O)c2O)ccc(C(C)=O)c1O [1-[2-Hydroxy-4-[4-(2,3-dihydroxyphenyl)butoxy]-3-propylphenyl]ethanone]
IC50 [1]: > 1000 nM

CCCc1c(OCCCCCCc2ccc(C(C)C)c(O)c2O)ccc(C(C)=O)c1O [1-[2-hydroxy-4 [6-[2,3 dihydroxy-4-(1-methylethyl)phenyl]hexyloxy]-3 propylphenyl]ethanone]
IC50 [1]: 700 nM

CCCc1c(OCCCCc2cccc(O)c2O)ccc(C(=O)O)c1O [4-[4-(2,3-dihydroxyphenyl)butoxy]-2-hydroxy-3-propylbenzoic acid]
IC50 [1]: 500 nM | Hamster Colitis Model Hazard Ratio ([2]; 10 mg/kg p.o): 1.35 | Hamster Colitis Model Hazard Ratio ([2]; 100 mg/kg p.o): 0.1
